Reference: ChEMBL document CHEMBL3399935, “Structure-activity relationships of benzhydrol derivatives based on 1'-acetoxychavicol acetate (ACA) and their inhibitory activities on multiple myeloma cell growth via inactivation of the NF-κB pathway” (Bioorg Med Chem, 2015)
Active and inactive are the calls of the source. The calls are words filed in the database; no cut-off is given here.

How the values were obtained:
HL-60 = test: Cytotoxicity against human HL60 cells assessed as growth inhibition at 10 uM after 3 days; format: functional, cell-based
[1] = Cytotoxicity against human HL60 cells assessed as growth inhibition after 3 days; format: functional, cell-based; conditions: HL-60, 72 h
[2] = biological target: T1, Nuclear factor NF-kappa-B complex (Homo sapiens) (UniProt Q00653+P19838+Q04206); test: Inhibition of NF-kappaB in human IM9 cells assessed as inhibition of nuclear translocation at 10 uM after 30 mins by NF-kappaB (p65) transcription factor assay; format: cell-based; conditions: IM-9
[3] = Cytotoxicity against human IM9 cells assessed as growth inhibition after 3 days; format: functional, cell-based; conditions: IM-9, 72 h
[4] = biological target: T1, Nuclear factor NF-kappa-B complex (Homo sapiens); test: Inhibition of NF-kappaB in human IM9 cells assessed as inhibition of nuclear translocation at 1 uM after 30 mins by NF-kappaB (p65) transcription factor assay; format: cell-based; conditions: IM-9
IM-9 = test: Cytotoxicity against human IM9 cells assessed as growth inhibition at 10 uM after 3 days; format: functional, cell-based

T1 sequence (P19838 whole entry, looked up): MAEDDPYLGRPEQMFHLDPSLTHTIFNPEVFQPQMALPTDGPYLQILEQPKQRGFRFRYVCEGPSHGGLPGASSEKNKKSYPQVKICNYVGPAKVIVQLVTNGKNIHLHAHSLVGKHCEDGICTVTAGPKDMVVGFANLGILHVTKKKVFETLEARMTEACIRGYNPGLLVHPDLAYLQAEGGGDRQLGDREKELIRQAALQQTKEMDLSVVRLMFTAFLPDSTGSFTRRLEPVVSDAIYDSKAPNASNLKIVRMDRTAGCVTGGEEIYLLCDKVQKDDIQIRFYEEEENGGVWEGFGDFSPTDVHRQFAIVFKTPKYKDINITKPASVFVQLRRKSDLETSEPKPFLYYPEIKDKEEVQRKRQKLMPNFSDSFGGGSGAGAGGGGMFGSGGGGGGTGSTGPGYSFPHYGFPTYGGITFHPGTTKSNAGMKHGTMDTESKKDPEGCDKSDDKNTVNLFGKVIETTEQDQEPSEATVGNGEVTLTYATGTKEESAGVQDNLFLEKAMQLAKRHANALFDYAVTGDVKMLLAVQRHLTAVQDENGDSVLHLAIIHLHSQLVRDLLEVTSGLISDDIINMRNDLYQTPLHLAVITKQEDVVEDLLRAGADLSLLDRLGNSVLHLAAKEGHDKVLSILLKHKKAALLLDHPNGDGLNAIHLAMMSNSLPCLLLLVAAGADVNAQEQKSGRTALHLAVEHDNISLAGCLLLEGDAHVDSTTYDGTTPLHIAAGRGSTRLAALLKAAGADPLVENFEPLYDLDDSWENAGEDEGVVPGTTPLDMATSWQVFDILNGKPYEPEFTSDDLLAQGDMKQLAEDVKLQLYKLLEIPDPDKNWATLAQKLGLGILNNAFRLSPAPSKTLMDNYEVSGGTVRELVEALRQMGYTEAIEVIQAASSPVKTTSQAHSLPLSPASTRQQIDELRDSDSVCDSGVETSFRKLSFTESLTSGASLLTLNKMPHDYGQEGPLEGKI
T1 sequence (Q00653 whole entry, looked up): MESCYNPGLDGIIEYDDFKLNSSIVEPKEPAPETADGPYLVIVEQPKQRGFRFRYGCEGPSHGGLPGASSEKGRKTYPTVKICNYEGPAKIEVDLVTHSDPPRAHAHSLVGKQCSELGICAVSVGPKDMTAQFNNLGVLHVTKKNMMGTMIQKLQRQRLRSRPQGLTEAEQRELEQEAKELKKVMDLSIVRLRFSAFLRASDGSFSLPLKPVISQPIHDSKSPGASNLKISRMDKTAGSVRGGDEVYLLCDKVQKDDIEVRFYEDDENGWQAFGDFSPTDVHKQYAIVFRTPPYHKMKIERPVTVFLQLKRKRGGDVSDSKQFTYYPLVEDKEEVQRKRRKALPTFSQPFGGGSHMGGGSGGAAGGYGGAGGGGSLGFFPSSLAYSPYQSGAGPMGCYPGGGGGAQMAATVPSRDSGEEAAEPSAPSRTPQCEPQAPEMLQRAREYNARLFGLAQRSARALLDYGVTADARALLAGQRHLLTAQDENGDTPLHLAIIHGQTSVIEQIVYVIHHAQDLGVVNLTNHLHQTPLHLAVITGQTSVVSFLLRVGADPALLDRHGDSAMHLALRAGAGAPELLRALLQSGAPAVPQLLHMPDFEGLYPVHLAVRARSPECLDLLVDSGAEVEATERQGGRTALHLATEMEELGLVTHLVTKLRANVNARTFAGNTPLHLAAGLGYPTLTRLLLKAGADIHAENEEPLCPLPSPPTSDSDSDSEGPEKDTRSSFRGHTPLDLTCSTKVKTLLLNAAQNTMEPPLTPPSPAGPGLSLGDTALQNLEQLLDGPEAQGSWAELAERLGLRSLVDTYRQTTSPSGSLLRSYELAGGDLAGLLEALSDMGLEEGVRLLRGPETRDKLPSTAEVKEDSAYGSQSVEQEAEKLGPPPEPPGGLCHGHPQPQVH
T1 sequence (Q04206 whole entry, looked up): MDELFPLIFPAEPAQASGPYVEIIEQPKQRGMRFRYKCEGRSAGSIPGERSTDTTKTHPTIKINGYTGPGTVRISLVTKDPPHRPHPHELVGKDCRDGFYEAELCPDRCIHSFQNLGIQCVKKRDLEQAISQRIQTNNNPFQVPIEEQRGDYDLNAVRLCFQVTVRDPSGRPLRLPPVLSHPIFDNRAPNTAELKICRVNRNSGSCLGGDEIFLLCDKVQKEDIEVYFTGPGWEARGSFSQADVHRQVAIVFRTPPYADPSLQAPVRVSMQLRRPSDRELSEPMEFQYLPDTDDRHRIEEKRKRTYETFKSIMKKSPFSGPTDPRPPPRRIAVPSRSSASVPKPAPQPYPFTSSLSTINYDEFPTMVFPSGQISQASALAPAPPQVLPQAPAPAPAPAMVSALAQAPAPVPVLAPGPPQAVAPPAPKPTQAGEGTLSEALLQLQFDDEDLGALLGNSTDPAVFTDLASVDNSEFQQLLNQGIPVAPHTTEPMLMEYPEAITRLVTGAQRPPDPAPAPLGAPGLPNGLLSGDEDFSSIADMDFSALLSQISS

inhibition [2] | Structure (SMILES) | IC50 [1] [nM] | IC50 [3] [nM] | other results
– | CC(=O)Nc1ccc(C(OC(C)=O)c2ccccc2)cc1 (stereo not given) | – | – | inhibition (HL-60): inactive
– | CC(=O)Oc1ccc2c(c1)CCc1ccccc1C2OC(C)=O (stereo not given) | 2800 | – | –
61% | CC(=O)Oc1ccc(C(OC(C)=O)c2ccccc2)cc1 (stereo not given) | 3500 | 2500 | –
– | CC(=O)Oc1ccc(C(OC(C)=O)c2cccc3ccccc23)cc1 (stereo not given) | 290 | – | –
– | CC(=O)Oc1ccc(C(OC(C)=O)c2ccc3ccccc3c2)cc1 (stereo not given) | 2200 | – | –
– | CC(=O)NC(c1ccccc1)c1ccc(OC(C)=O)cc1 (stereo not given) | – | – | inhibition (HL-60): inactive
inactive | CC(=O)Oc1ccc2c(c1)-c1ccccc1C2OC(C)=O (stereo not given) | > 10000 | – | inhibition (IM-9): inactive
85% | CC(=O)Oc1ccc(C(OC(C)=O)c2c3ccccc3cc3ccccc23)cc1 (stereo not given) | 120 | 230 | inhibition [4]: 32%
– | CC(=O)Oc1ccc(C(OC(C)=O)c2cc(-c3ccccc3)cc(-c3ccccc3)c2)cc1 (stereo not given) | 1100 | – | –

Structure (SMILES) | inhibition [2] | IC50 [1] [nM] | IC50 [3] [nM] | other results
C=C[C@H](OC(C)=O)c1ccc(OC(C)=O)cc1 [1'-ACETOXYCHAVICOL ACETATE] | 70% | 2000 | 2100 | inhibition [4]: 0%
